Laboratory results reported in PMC11945201, “Enhancing the Oral Bioavailability of Glutathione Using Innovative Analogue Approaches” (Pharmaceutics, 2025).
≈ marks a conversion by molar mass, not a printed value.

Columns and labels:
[1] = system: γ-glutamyl transferase (GGT); format: in vitro ADME, equine; settings: horse, 100 μgmL^−1, pH 9
Method: Each compound and GSH (100 μgmL^−1, 0.0315 molL^−1) was added to each reaction vessel containing phosphate buffer solution (800 μL, pH 9.0). The reaction vessels were incubated at 37 °C with shaking for the entire duration of the experiment. Reaction was initiated by the addition of GGT enzyme solution (100 μL, 10 UmL^−1). […] The degradation rate of the novel compounds analysed by HPLC were compared with that of GSH. […] A GGT degradation less than 50% was considered resistance to GTT activity.

[2] = UV rescue of UVA-irradiated fibroblast cells (MTT); format: cell-based; settings: peptide 0.0325 mmolL^−1, 24 h, no UV, mean ± SD, n = 6, read-out: % Cell Viability (no UV)
Method: Fibroblast cells were seeded into 96-well plates at a density of 10,000 cells per well determined by cell counting. Cells were allowed to settle and attach for 24 h before the addition of peptides. The supernatant in each well was discarded, and the attached cells were washed using serum-free DMEM twice. One group of cells was exposed to UVA under a UV lamp for 1 h. A second group of cells was not exposed to UV irradiation. The supernatant was removed from each well of both groups and replaced with peptide (100 μL, 0.0325 mmolL^−1), which was then dissolved in Fluorobite^TM DMEM. Each plate, including 2 wells of both groups was also incubated with serum-free DMEM (positive control) and 2% Triton-X (negative control) for 24 h. The supernatant in each well of both groups was then discarded and the cells washed using PBS. MTT (100 μL, 6 mmolL^−1) that was dissolved in HBSS was then added to each well and incubated for 2 h for MTT conversion into formazan. The supernatant was then discarded, and the cells were washed using PBS to remove any residual MTT and formazan that were not attached to the cellular mitochondria. Formazan was dissolved in DMSO (50 μL), and the absorbance was measured on a microplate reader at a wavelength of 570 nm.

[3] = Pharmacokinetic study after IV injection or oral gavage; format: in vivo, male Sprague Dawley rat; settings: for AUC / bioavailability / half-life: male, plasma; for AUC / bioavailability: Sprague-Dawley; for AUC / half-life: 75 mg per rat; for AUC: AUC0-48, mean ± SD, n = 4; for bioavailability: rat, po, 75 mg; for half-life: read-out: plasma t½
Method: Pharmacokinetic studies were conducted using a male Sprague Dawley rat model. […] The animal experiments were performed in China, complying with the guide for care and use of laboratory animals. […] The collected blood samples were centrifuged at 7104× g for 5 min, and the plasma was stored at -70 °C until analysis. The plasma protein was precipitated by the addition of 1 mL of ACN, which was then vortexed for 1 min and centrifuged at 30,065× g for 15 min. […] The 1.70 concentration for each group (oral/IV) was determined using a modified LC-MS method adapted from the GSH protocol. Briefly, blood samples containing 1.70 were analysed separately by positive mode LC-MS using an Agilent 1100 series HPLC (Agilent Technology, Inc., Santa Clara, CA, USA) coupled with an Agilent 6530 Accurate Mass Q-TOF LC/MS (Agilent Technology, Inc., Santa Clara, CA, USA), which was equipped with a dual jet stream electrospray ionisation source. Chromatographic separation was achieved on a Zorbax SB C18 column (5 μm, 3 × 150 mm) maintained at 40 °C. […] The flow rate was set at 0.5 mL/min with an injection volume of 8 μL. Mass spectrometer settings were configured for m/z transitions of 319.1→215.2, with a fragmentor voltage of 180 V. The instrument parameters were as follows: a gas flow of 10 L/min, a gas temperature of 275 °C, a sheath gas flow of 12 L/min, a sheath gas temperature of 300 °C, a nebuliser pressure of 40 psi, a capillary voltage of 3000 V, and a nozzle voltage of 500 V. This method was developed and validated through triplicate linearity studies at concentrations ranging from 30 to 5000 ng/mL according to the International Conference on Harmonization (ICH) guidelines. Data were acquired and analysed using Agilent Mass Hunter Software (version A.02.17).

[4] = system: aminopeptidase; assay: in vitro; settings: aminopeptidase solution
Method: (§1) To investigate the GSH degradation against common enzymes of the GI tract, the degradation of GSH in the presence of pepsin, chymotrypsin, trypsin, aminopeptidase, GGT, jejunum luminal content, and mucosal homogenates obtained from the rats’ intestines were investigated. GSH (100 μgmL^−1) was incubated at 37 °C with the above enzymes or mixtures for 24 h. The sample was withdrawn at the time intervals of 0, 1, 10, 30, 60, 120, 240, 480, and 1440 min, which were then mixed with equal volume of ice-cold HCl (0.2 molL^−1) until analysis by HPLC. Enzymatic degradation was repeated until three results within <5% SD were obtained.

[5] = target: trypsin (Bos taurus, UniProt P00760); assay: in vitro; settings: bovine, trypsin solution
Method: as §1

[6] = target: pepsin (Bos taurus, UniProt P00792); assay: in vitro; settings: bovine, pepsin solution
Method: as §1

[7] = system: γ-glutamyl transferase (GGT); assay: in vitro; settings: horse, γ-glutamyl transferase (GGT) solution
Method: as §1

[8] = target: chymotrypsin (Bos taurus, UniProt P00766); assay: in vitro; settings: bovine, chymotrypsin solution
Method: as §1

[9] = in vitro; settings: rat
Method: as §1

[10] = cited from earlier work
[11] = background statement in abstract, ref not given; cited from earlier work
[12] = physchem
Method: To investigate the potential peptide degradation during storage and when in a cell culture medium, the stability of GSH in NaOH (0.1 molL^−1, pH 13.0), HBSS (pH 7.4), and HCl (0.1 molL^−1, pH 1.0) were investigated. GSH (100 μgmL^−1) was incubated at 37 °C with the above conditions for 24 h or until at least 20% of peptide was degraded. The samples were withdrawn at the time intervals 0, 1, 10, 30, 60, 120, 240, 480, and 1440 min and mixed with equal volume of ice-cold HCl (0.2 molL^−1) until analysis by HPLC. Stability was repeated until three results within <5% SD were obtained.

pepsin, sequence (P00792 43-372): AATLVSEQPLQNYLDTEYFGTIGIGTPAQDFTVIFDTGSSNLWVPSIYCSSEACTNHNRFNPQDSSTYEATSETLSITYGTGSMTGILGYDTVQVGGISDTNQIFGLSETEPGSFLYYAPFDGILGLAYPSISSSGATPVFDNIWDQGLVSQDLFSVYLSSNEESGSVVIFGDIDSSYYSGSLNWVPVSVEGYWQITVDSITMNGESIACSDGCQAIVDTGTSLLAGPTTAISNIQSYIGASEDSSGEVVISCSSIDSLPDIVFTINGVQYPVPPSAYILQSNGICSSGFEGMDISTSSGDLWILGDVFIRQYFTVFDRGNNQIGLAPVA
trypsin, sequence (P00760 24-246): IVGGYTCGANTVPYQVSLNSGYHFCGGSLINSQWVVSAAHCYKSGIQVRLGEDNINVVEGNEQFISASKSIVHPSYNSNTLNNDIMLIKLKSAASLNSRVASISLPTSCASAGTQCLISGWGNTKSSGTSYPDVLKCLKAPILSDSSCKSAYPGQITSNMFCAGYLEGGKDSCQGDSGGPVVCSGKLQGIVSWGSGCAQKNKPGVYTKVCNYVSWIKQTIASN

SMILES | % Degradation by GGT [1] | viability at 24 h, 0.0325 mmolL^−1 [2] | fold increase in oral bioavailability compared to native GSH ([3]; Sprague Dawley rats) | fold increase in plasma t½ compared to native GSH ([3]; Sprague Dawley rats) | AUC ([3]; IV) | AUC ([3]; oral) | bioavailability [3] | half-life ([3]; Sprague Dawley rats) | half-life at 100 μgmL^−1 [4] | half-life at 100 μgmL^−1 [5] | half-life at 100 μgmL^−1 [6] | half-life at 100 μgmL^−1 [7] | half-life at 100 μgmL^−1 [8] | half-life at 100 μgmL^−1 ([9]; jejunum luminal contents) | half-life at 100 μgmL^−1 ([9]; jejunum mucosal homogenates) | water solubility [10] | oral bioavailability [11] | half-life at 100 μgmL^−1 ([12]; HBSS buffer, pH 7.4) | half-life at 100 μgmL^−1 ([12]; aqueous HCl solution, pH 2) | half-life at 100 μgmL^−1 ([12]; aqueous NaOH solution, pH 12)
CN(C(=O)CC[C@H](N)C(=O)O)[C@@H](CS)C(=O)NCC(=O)O [Compound 1.70] | 11.7% | 108 ± 9.4% | 16.1 fold | 16.8 fold | 727 ± 42 ng·h/mL | 82 ± 8 ng·h/mL | 11.3 ± 1.2% | 0.56 h | – | – | – | – | – | – | – | – | – | – | – | –
N[C@@H](CCC(=O)N[C@@H](CS)C(=O)NCC(=O)O)C(=O)O [GSH, Glutathione] | – | – | – | – | 5350 ± 2480 ng·h/mL | 36 ± 8 ng·h/mL | 0.7 ± 0.1% | 0.0333 h | 18.9 ± 0.9 h | 5.8 ± 0.3 h | 31.4 ± 1.6 h | 0.7 ± 0.03 h | 4.6 ± 0.2 h | 30.5 ± 1.5 h | 9.4 ± 2 h | 292.5 mg/mL (≈ 952 mM) | below 1% | 46.3 ± 2.3 h | 203 ± 10.1 h | 2.5 ± 0.1 h
